Entries after “also recorded” stand apart in the source; their conditions may differ.
Columns and labels:
hepatocytes [1] = assay: T3- or GC-1-supplemented diet in wild type mice: hepatocyte proliferation; format: in vivo
Description: All studies on mice were performed in strict accordance with Guidelines. Eight-week old male C57BL/6 male mice (Jackson/Charles River) were maintained on a standard laboratory basal diet (Test Diet) (n=4), or fed a T3-supplemented diet (4 mg/Kg of diet, Sigma Chemicals, St. Louis Mo.) (n=4). GC-1 was administered to the eight week-old male C57BL/6 male mice either via GC-1-supplemented diet (5 mg/Kg of diet, Medchem Express) for 8 days (n=4) or via daily intraperitoneal injections (IP) of GC-1 dissolved in DMSO (0.3 mg/kg/dose) for 8 days (n=7). As a control group for injections, DMSO alone was injected daily intraperitoneal (IP) for 8 days (n=5). Mice were sacrificed 24 hours after the last injection.
(§1) To label dividing hepatocytes, BrdU (5-bromodeoxyuridine) dissolved in drinking water (1 mg/ml) was given to all animals throughout the experiment period. The animals were given food and water ad libitum with a 12-hour light/dark daily cycle.
(§2) Four micron liver sections were analyzed by immunohistochemistry for β-Catenin (BD Biosciences, San Jose, Calif.), Cyclin-D1 (Thermo-Scientific, Fremont, Calif.) and PCNA (Santa Cruz Biotechnology, Dallas, Tex.). Briefly, formalin-fixed sections were deparaffinized in graded xylene and alcohol. Endogenous peroxidase was inactivated using 3% hydrogen peroxide (Sigma). For β-Catenin, Cyclin-D1 staining, slides were microwaved in Citrate buffer followed by blocking with Superblock for 10 minutes. Sections were then incubated with secondary anti-mouse (for β-catenin) or anti-rabbit (for Cyclin-D1) horseradish peroxidase-conjugated antibody for 30 minutes.
(§3) Bromodeoxyuridine (BrdU) was stained with mouse antibody (Becton Dickinson) as previously described (Fanti et al. (2014) Hepatology 59, 2309-2320). Briefly, tissue sections were deparaffinized, exposed to 0.3% hydrogen peroxide in deionized water for 10 minutes to block endogenous peroxidase, treated with 2N HCl, incubated with trypsin 0.1% for 20 minutes and then with normal goat serum for 20 minutes at room temperature. Sections were then incubated overnight in cold room with anti-BrdU monoclonal antibody, followed by biotinylated goat anti-mouse IgG. DAB kit was then applied, and sections were counterstained with hematoxylin. A small segment of intestine was included from each mouse as a positive control for the staining. For quantification of BrdU staining, at least 10 high power fields (400× or 600×) fields each from at least three biological replicates were counted as indicated in the figures. Statistical analysis was performed as described below.

[2] = test system: β-catenin-TCF4 reporter activity in HepG2 cells (exon-3-deletion mutant of CTNNB1); assay: TopFlash reporter assay in HepG2 cells; format: cell-based, human; conditions: (methods: 5-7 μM, 24 hours), vs DMSO
Excerpt: (§4) Three liver tumor cell lines Hep3B, HepG2 and Snu-398 cells were obtained from ATCC (Manassas, Va.). Cells were transfected simultaneously with Renilla reniformis luciferase (pRL-TK; Promega, Madison, Wis.) as a transfection control and TopFlash firefly luciferase plasmids (Upstate Biotechnology, Lake Placid, N.Y.), which contains three copies of the Tcf/Lef sites upstream of a thymidine kinase (TK) promoter and the firefly luciferase gene using Lipofectamine 2000 (Life Technologies). Twenty-four hours after transfection, cells were treated with either DMSO (Fisher Scientific) or 5-7 μM GC-1 (Medchem Express, Monmouth Junction, N.J.) for 24 hours. Lysates were harvested using the Dual-Luciferase Reporter Assay System (Promega, Madison, Wis.). Firefly luciferase signals were normalized to Renilla luciferase and ratio between groups compared by student's t-test to determine significance. P<0.05 was considered significant.

hepatocytes [3] = assay: Partial hepatectomy after pretreatment with T3 or GC-1 supplemented diet; format: in vivo, mice
Description: as §1
After 7 days of receiving T3 supplemented diet (n=3) or GC-1 diet (n=3) or standard basal mouse chow (n=3), C57BL/6 male mice underwent partial hepatectomy as described previously (Tan et al. (2006) Gastroenterology 131, 1561-1572). Anesthesia was provided with inhaled Isoflurane. The animals were sacrificed 24 hours post hepatectomy, after Isoflurane anesthesia and cervical dislocation. Serum and liver tissue were harvested for further processing.
as §2, §3

hepatocytes [4] = assay: GC-1 or T3 in hepatocyte specific β-catenin knockout mice (β-Cat LKO) and littermate controls; format: in vivo
Description: Eight to 10 week old male hepatocyte specific β-catenin knockout mice (β-cat-LKO) or sex-matched littermate controls obtained from breeding homozygous floxed β-catenin mice and albumin-cre transgenic mice (as described elsewhere (Tan et al., (2006) Gastroenterology 131, 1561-1572)) were given 8 daily IP injections of GC-1 (n=4) or DMSO (n=4) and harvested around 24 hours after the last injection.
as §1, §2, §3
Protein extraction from frozen liver tissue and western blot analysis were performed as previously described (Fanti et al., (2014) Hepatology 59, 2309-2320). For protein extraction, a small amount of frozen liver tissue was obtained (over dry ice) and was homogenized using RIPA buffer with protease and phosphatase inhibitor cocktail (Sigma, St. Louis, Mo.). Samples were transferred to a 1.5 ml tube on ice, and spun in cold room centrifuge at 14,000 RPM for 5 minutes. Pellet was then discarded and sample was aliquoted and stored at −80 C for use. Fifty micrograms of the proteins were resolved by sodium dodecyl sulfate-polyacrylamide gel electrophoresis analysis, and transferred to immobilon-polyvinylidene difluoride membranes.
The primary antibodies used were against β-catenin (BD Biosciences); pSer675-β-catenin, pSer552-β-catenin, Active-β-catenin (Cell-Signaling), Cyclin-D1 (Thermo-Scientific), and β-Actin (Sigma). Dilutions of primary antibody were done according to manufacturer recommendations (1:1000 for all except Cyclin-D1 which was 1:200). Horseradish peroxidase-conjugated secondary antibodies used were goat anti-mouse (1:20,000) and goat anti-rabbit (1:10,000) (Millipore). The proteins were detected by Super-Signal West Pico Chemiluminescense Substrate (Thermo Scientific, Rockford Ill.) and visualized by autoradiography.
Total RNA was extracted by homogenizing frozen liver tissues in Trizol reagent (Invitrogen, Carlsbad, Calif.) from GC-1-injected β-Cat LKO (n=4) and littermate control mice (n=4); and GC-1-injected LRP5-6 LKO (n=3) and littermate control mice (n=3). […]

[5] = test system: β-catenin-TCF4 reporter activity in Snu-398 cells (point-mutant β-catenin); assay: TopFlash reporter assay in Snu-398 cells; format: cell-based, human; conditions: 7 μM GC-1 (methods: 5-7 μM, 24 hours), vs DMSO
Excerpt: as §4

[6] = test system: preneoplastic hepatocytes; conditions: resistant-hepatocyte model of hepatocarcinogenesis (T3, rats); Ledda-Columbano 2000, Perra 2009; cited from earlier work

SMILES: Cc1cc(OCC(=O)O)cc(C)c1Cc1ccc(O)c(C(C)C)c1 [GC-1, Sobetirome]
- hepatocyte proliferation relative to T3 (hepatocytes [1]; GC-1 diet versus T3 diet, 8 days): modestly less extent than T3
- BrdU incorporation (hepatocytes [1]; T3 (4 mg/Kg of diet) or GC-1 (5 mg/Kg of diet) chow 8 days, vs basal diet): increased BrdU incorporation
- cyclin-D1 staining in hepatocytes (hepatocytes [1]; T3 diet or IP GC-1, 8 days, vs respective controls): notably increased cyclin-D1 staining
- cyclin-D1 staining in hepatocytes (hepatocytes [1]; T3 or GC-1 supplemented diet 8 days, vs basal diet): increased in both groups
- BrdU-positive hepatocytes, T3 diet versus IP GC-1 (hepatocytes [1]; T3 supplemented diet versus IP GC-1, 8 days, p<0.001 between groups): overall fewer number of BrdU-positive hepatocytes
- TopFlash luciferase reporter activity [2]: no significant effect; also recorded: insignificant differences
- nuclear cyclin-D1 immunohistochemistry at 24 hours after hepatectomy (hepatocytes [3]; 24 hours after hepatectomy): panlobular distribution
- BrdU positive hepatocyte nuclei at 24 hours after hepatectomy (hepatocytes [3]; diet pretreatment, vs basal diet): pronounced increase
- increase in hepatocyte proliferation over the 24-hour liver regeneration period (hepatocytes [3]; pre-hepatectomy vs 24 hour-post hepatectomy, same animals, all three mice): around 2 fold
- cyclin-D1 immunohistochemistry in resected lobes at time of hepatectomy (hepatocytes [3]; pretreatment livers): expansion of cyclin-D1 positive hepatocytes in the midzonal area
- BrdU-positive hepatocytes in resected lobes at time of hepatectomy (hepatocytes [3]; seven-day pretreatment, vs basal diet): increased BrdU-positive hepatocytes
- active β-catenin, Western blot (hepatocytes [4]; β-Cat LKO after T3 or GC-1 treatment): very faint signal
- P-Ser675-β-catenin, Western blot (hepatocytes [4]; β-Cat LKO vs controls treated with GC-1 or T3): absent
- nuclear cyclin-D1 by immunohistochemistry (hepatocytes [4]; β-Cat LKO vs controls, GC-1): notable decrease
- BrdU incorporation in hepatocytes (hepatocyte proliferation) (hepatocytes [4]; β-Cat LKO vs littermate controls, GC-1 0.3 mg/Kg/dose IP, 8 days): decreased hepatocyte proliferation
- BrdU incorporation in non-parenchymal cell population (hepatocytes [4]; β-Cat LKO, GC-1 IP): notable BrdU incorporation continued to occur
- cyclin-D1 mRNA expression (RT-PCR) (hepatocytes [4]; β-catenin-LKO mice receiving GC-1 vs controls): significant decrease
- TopFlash luciferase reporter activity [5]: no significant effect; also recorded: insignificant differences
- effect on preneoplastic lesions / carcinogenic process [6]: negatively influence the carcinogenic process
